SMILES strings stand for the structures.

Assay [1] relates to Human meningioma cell line IOMM-Lee cells. In words: Trypan blue viable cell counting, cell viability. Particulars: 24 h. In kind it is cell-based. The protocol:
Human meningioma cell line IOMM-Lee cells (purchased from ATCC) were cultured using a DMED culture medium containing 10% FBS and 100 U/mL penicillin-streptomycin double antibiotics in an incubator with 5% CO2 at 37 °C. The cells in the logarithmic growth phase were seeded uniformly in a 6-well plate at a density of 2 × 10^5 cells/mL and cultured for 24 h, and then the cells were grouped into a blank control group and compound (I) treatment groups at different concentrations. The compound (I) treatment concentrations were 0.4 µM, 0.8 µM, 1.6 µM, 2 µM, 10 µM, 20 µM, 60 µM, and 120 µM, and 3-4 replicate wells were set for each group. After cells in the groups were separately cultured for 24 h, the cells were digested with 0.25% trypsin, and 50 µL of each cell suspension was mixed with 50 µL of 0.4% trypan blue solution to a final trypan blue concentration of 0.2%. Subsequently, 10 µL of the uniform cell suspension was added to a counting plate and counted under a microscope for the total cell count and dead cell count. Statistical analysis was performed.

The subject of assay [2] is meningioma cells IOMM-Lee. In words: EdU cell proliferation assay. In kind it is cell-based, human. Particulars: 1 µM, 24 h, versus blank control group. The protocol: The IOMM-Lee single cell suspension in the logarithmic growth phase obtained in Example 1 was seeded in a 6-well plate at a cell density of 3 × 10^5 cells/mL, cultured overnight, and grouped into a blank control group and a compound (I) treatment group (concentration: 1 µM; treatment duration: 24 h). Subsequently, each group was incubated with EdU (10 µM) for 2 h; the culture medium was discarded; and the cells were washed with PBS (in this experiment, PBS was used in the washing process). The cells were fixed with 4% paraformaldehyde; the stationary liquid was discarded; and the cells were washed. After that, the cells were permeabilized with 0.3% Triton X100; the permeabilization liquid was discarded; and the cells were washed. Then, a prepared click reaction solution (commercially available C0081 BeyoClick™ EdU Cell Proliferation Kit with Alexa Fluor 647) was added; the mixture was incubated in the dark at room temperature for 30 min; the reaction solution was discarded; and the cells were washed. The cell nuclei were stained with Hoechst 33342 fluorescent dye by adding 1× Hoechst 33342 solution at 1 mL/well, followed by incubated in the dark at room temperature for 10 min; 1× Hoechst 33342 solution was removed by pipetting; and the cells were washed 3 times. Subsequently, a fluorescence assay was performed, and the results were recorded.

Assay [3] has as its system CH157-MN. In words: Cell scratch assay (migration). In kind it is cell-based, human. Particulars: CH157-MN, 2, 5, 10 µM, 24 h, versus blank control; dose-dependent. The protocol:
(§1) • (1) The IOMM-Lee single cell suspension in the logarithmic growth phase was seeded in a 6-well plate at a cell density of 6 × 10^5 cells/mL and cultured for 24 h to ensure the full covering of the entire cell culture dish by the growing cells. A cell scratch was made by a 10 µL sterile pipette tip perpendicular to the culture dish; the original culture solution was discarded; and the detached cells were pipetted by washing with PBS 3 times. The cells were cultured using a serum-free DMEM culture medium and grouped into a blank control group and compound (I) treatment groups at different concentrations, where the compound (I) treatment groups had concentrations of 0.5 µM, 1 µM, and 2 µM, respectively. The cells were observed under the bright field of a microscope and recorded at 0 h and 24 h. • (2) With reference to the experimental method (1), the concentrations in the compound (I) treatment groups were replaced by 2 µM, 5 µM, and 10 µM, respectively, and the used human meningioma cell line was IOMM-Lee or CH157-MN.

Assay [4] has as its system IOMM-Lee. Briefly: Cell scratch assay (migration). Conditions: IOMM-Lee, 0.5, 1, 2 µM and 2, 5, 10 µM, 24 h, versus blank control; dose-dependent. In kind it is cell-based, human. The protocol:
as §1

Assay [5] has as its system CH157-MN. In words: Apoptosis by annexin V-FITC/PI flow cytometry. Particulars: CH157-MN, 2, 5, 10 µM, 24 h, versus blank control. In kind it is cell-based, human. The protocol:
(§2) • (1) The IOMM-Lee single cell suspension in the logarithmic growth phase was seeded in a 6-well plate at a cell density of 5 × 10^5 cells/mL, cultured overnight, and grouped into a blank control group and compound (I) treatment groups at different concentrations, with concentrations of compound (I) being 1 µM, 5 µM, and 10 µM, respectively, and 3-4 replicate wells were set. After the addition of compound (I) at different concentrations for the treatment for 24 h, (1-10) × 10^5 cells were collected from the blank control group and each compound (I) treatment group, washed with PBS, and centrifuged. The cells were resuspended in 500 µL of 1× binding buffer. 5 µL of annexin V-FITC and 10 µL of PI were added to each tube. After gently and homogeneously mixing by vortex, the cells were incubated in the dark at room temperature for 5 min and then subjected to flow cytometry. • (2) With reference to the experimental method (1), the concentrations in the compound (I) treatment groups were replaced by 2 µM, 5 µM, and 10 µM, respectively, and the used human meningioma cell line was IOMM-Lee or CH157-MN.
(In general: Flow cytometry measures light scatter and fluorescence of single cells or particles in a stream.)

Assay [6] deals with IOMM-Lee. Briefly: Apoptosis by annexin V-FITC/PI flow cytometry. In kind it is cell-based, human. Conditions: IOMM-Lee, 1, 5, 10 µM and 2, 5, 10 µM, 24 h, versus blank control. The protocol: as §2

With `Cc1cc(NC(=O)c2cccc3cc(-c4cccc5[nH]nc(N)c45)ccc23)ccc1F` [compound (I)], the viability (as a rule, a per cent measure of how many cells are alive, often set against a control) at 0.4 µM in assay [1] (compound (I) 0.4 µM) was determined as 71.8 ± 4.06%. This molecule also yielded a viability at 0.8 µM in assay [1] (compound (I) 0.8 µM) of 56.8 ± 5.19%. In assay [1] (compound (I) 1.6 µM), this molecule had a viability at 1.6 µM of 48.3 ± 10.5%. In assay [1] (compound (I) 2 µM), this molecule returned a viability at 2 µM of 45.3 ± 1.91%. The molecule also gave a viability at 10 µM in assay [1] (compound (I) 10 µM) of 35 ± 3.93%. Further, in assay [1] (compound (I) 20 µM), the viability at 20 µM was 22.6 ± 2.72%. The same molecule displayed a viability at 60 µM in assay [1] (compound (I) 60 µM) of 19.3 ± 0.52%. Besides, the viability at 80 µM in assay [1] (compound (I) 80 µM) was found to be 6.33 ± 1.71%. Also, the viability at 120 µM in assay [1] (compound (I) 120 µM) amounted to 0%. Also, in assay [2], the “EdU-labeled (proliferating) cells” value is recorded as “significantly fewer than those in the blank control group”. The cell scratch healing result in the assay with CH157-MN [3] and with IOMM-Lee [4] was “significantly weaker cell scratch healing than that of the blank control group” each time. In addition, the late apoptosis entry in the assay on CH157-MN [5] and with IOMM-Lee [6] was “significantly increased” throughout. Also, the “total cell apoptosis ratio” value in the assay with CH157-MN [5] (with increasing concentration) and in the assay with IOMM-Lee [6] (with increasing concentration) was “increased” in each case.
